According to US9182385B2, “Methods for diagnosis, prognosis and methods of treatment” (NODALITY, INC., priority 2007, dated 2015):

Tests used:
CLL cells = assay: Phospho-specific multiparametric flow cytometry of BCR signaling in CLL patient samples; type: cell-based, human
Experimental: (§1) Ramos cells were maintained and cultured using methods known in the art. Cells from CLL patients were obtained using methods known in the art.
(§2) The cell suspension was added drop-wise into media. […] Cells were incubated at 37° C. for 2 hours. […] Cells were aliquoted into wells.
(§3) Cells were washed twice. […] Cocktail • (i) CD3 pac blue=160 μl • (ii) CD4 APC=80 μl • (iii) CD8 PE Cy7=80 μl • (iv) CD5 PE Cy5=400 μl • (v) CD20 PerCP Cy5.5=800 μl • (vi) p-Erk=800 μl • (vii) p-BLNK=800 μl • (viii) p-Syk/ZAP70=800 μl • b. […] Each well received 100 μl of this cocktail mix.
Cells were prepared and stained as described above.

[1] = system: blood B cells from healthy donors
Experimental: BCR cross-linking and preparation for staining: Cells were thawed at 37° C. in a water bath until partially thawed (˜50%). Cells were thawed into 5% FBS/RPMI at room temperature. The cell suspension was added drop-wise into media. Cells were centrifuged at 900 RPM for 10 minutes with no brake. The supernatants were decanted and pellets resuspended in 25 milliliters (ml) of media. Cells were re-centrifuged at 900 RPM for 10 minutes, decanted again and resuspended in 5 ml of 1% FBS/RPMI. Cells were counted with a hemocytometer using trypan blue staining. The concentration of the cells was adjusted as necessary to reduce crowding. Cells were incubated at 37° C. for 2 hours. The final cell concentration, including additives and reagents (e.g. stimulant, Fab fragment, H2O2, aqua, etc.) was 1.6 million/ml. Cells were aliquoted into wells. […]
Analysis by Flow Cytometry: Between 10,000 and 100,000 un-gated events were collected for each sample on the BD LSR II flow cytometry machine. The fluorescent anti-bodies directed to extra-cellular markers (i.e. CD3, CD4, CD8, CD5 and CD20) were used to mark the cells and a hierarchical gating strategy was used to identify the B-Cells and mature B-Cell population among the recorded events as described below: • a. […] All the recorded events were also marked by the following intra-cellular markers p-Erk, p-Syk/Zap70, and p-BLNK. […]

Ramos cells = assay: Phospho-specific multiparametric flow cytometry of BCR signaling in Ramos cells; type: cell-based; details: FIG. 1, fluorescence above autofluorescence and background
Experimental: as §1, §2, §3

[2] = CD20+/CD5+ cell population of CLL samples, kinetics

Structure (SMILES) | PLCγ2 phosphorylation (CLL cells; [2]) | phosphorylation of rpS6 (CLL cells; [2]) | levels of phosphorylated p72SYK/p70ZAP, ERK1/2, BLNK, and PLCγ2 (CLL cells; CLL cells of some patients, independent of surface F(ab)2anti-μ ligation) | activation of Erk and Syk (CLL cells; CLL samples, inhibition of phosphatases, FIG. 6) | tonic BCR signaling revealed by inhibition of phosphatases (CLL cells; other CLL samples, FIG. 10) | responsiveness (phosphorylated p72SYK/p70ZAP, ERK1/2, BLNK, PLCγ2) (CLL cells; other CLL-B cells, even in the presence of F(ab)2anti-μ) | phosphorylation of p72SYK/p70ZAP, ERK1/2, BLNK, PLCγ2 ([1]; blood B cells from healthy donors) | activation of signaling post BCR ([1]; normal B cells, H2O2 by itself, FIG. 7) | activation of p-Erk and p-Syk/pZap70 (Ramos cells) | activation of p-Erk across patients (CLL cells; CLL patient samples, regardless of ZAP70 expression (summary)) | p-Erk and p-Syk phosphorylation (CLL cells; CLL samples with low and high frequency of ZAP70, FIG. 5) | Erk and Syk phosphorylation (CLL cells; other CLL samples, FIG. 9) | activation of Erk (CLL cells; pheresed CLL samples, FIG. 3)
OO [H2O2, hydrogen peroxide] | increased | attenuates | induced high-levels | activates | does not reveal strong tonic BCR signaling | significantly less responsive | failed to elicit a substantial increase | incapable of activating post BCR by itself | – | – | – | – | –
CCCCCCCCCCCCCC(=O)O[C@@H]1[C@@H](C)[C@@]2(O)[C@@H](C=C(CO)C[C@]3(O)C(=O)C(C)=C[C@@H]23)[C@@H]2C(C)(C)[C@]12OC(C)=O [PMA] | – | – | – | – | – | – | – | – | activates | comparable in all patients | modest | modest | activates
